{"source": "patent EP0097072A1", "about": "“Derivatives of benzylsulfinyl acetamides, their therapeutic use and process for their preparation” (LABORATOIRE L. LAFON Société anonyme dite:, priority 1982, dated 1983)", "assay_type_in_all_cases": "in vivo", "key": {"rats": {"system": "rats", "test": "Interaction with amphetamine (amphetamine stereotypies)", "settings": "rat, 256 mg/kg I.P.; amphetamine 2 mg/kg I.P. half an hour after the compound", "procedure": "(§1) Les résultats des essais qui ont été entrepris ont été résumés ci-après. Dans ces essais, le CRL 40569 (produit de l'exemple 1) en suspension dans une solution aqueuse de gomme arabique, et le CRL 40615 (produit de l'exemple 2) en solution dans de l'eau distillée ont été administrés par voie intrapéritonéale sous un volume de 20 ml/kg chez la souris mâle et sous un volume de 5 ml/kg chez le rat mâle.\nDes lots de 6 rats reçoivent une injection par voie I.P. de 2 mg/kg d'amphétamine une demi-heure après le CRL 40569."}, "souris [1]": {"system": "souris", "test": "Action on spontaneous motility (actimeter)", "settings": "mouse, recorded 30 min, starting half an hour after dosing", "procedure": "as §1\nUne demi-heure après avoir reçu les produits à tester, les souris (6 par dose et par produit, 12 témoins pour chaque produit) sont placées en actimètre ou leur motilité est enregistrée pendant 30 minutes."}, "souris mâle [2]": {"system": "souris mâle", "test": "Toxicity: DL-0 (maximal non-lethal dose)", "settings": "male mouse, I.P. route", "procedure": "as §1\nLa DL-0 (dose maximale non mortelle) chez la souris mâle par voie I.P. pour les CRL 40569 et CRL 40615 est supérieure à 1024 mg/kg."}, "souris mâle [3]": {"system": "souris mâle", "test": "Global behaviour and reactivities in the mouse", "settings": "I.P., 512 mg/kg, observed 15 min to 24 h after administration", "procedure": "as §1\n(§2) Des lots de 3 animaux par dose et par produit sont observés avant,puis 15 minutes, 30 minutes, 1 h, 2h, 3h et 24 h après administration des CRL 40569 et CRL 40615."}, "rat mâle": {"system": "rat mâle", "test": "Global behaviour and reactivities in the rat", "settings": "I.P.", "procedure": "as §1, §2"}, "souris [4]": {"system": "souris", "test": "Action on intergroup aggressiveness (number of fights)", "settings": "mouse, notably at 512 mg/kg I.P.; groups joined half an hour after dosing, fights counted over 10 minutes", "procedure": "as §1\nAprès avoir séjourné pendant 3 semaines de part et d'autre d'une cloison opaque séparant leur cage par le milieu, des groupes de 3 souris reçoivent le CRL 40615. Une demi-heure plus tard, les deux groupes d'une même cage sont réunis par retrait de la cloison et ou note le nombre de combats qui surviennent en 10 minutes."}}}
{"smiles": "COc1ccc(C[S+]([O-])CC(N)=O)cc1", "note": "(stereo not shown) [CRL 40569, 4-méthoxybenzylsulfinyl-acétamide]", "values": [{"measurement": "intensité des stéréotypies amphétaminiques", "setting": "rats", "value": "diminue légèrement l'intensité des stéréotypies amphétaminiques"}, {"measurement": "motilité spontanée", "setting": "souris [1]; I.P., 32, 128 and 512 mg/kg", "value": "diminution de la motilité spontanée"}, {"measurement": "DL-0 (dose maximale non mortelle)", "setting": "souris mâle [2]", "value": "> 1024", "unit": "mg/kg"}, {"measurement": "comportement global et réactivités", "setting": "souris mâle [3]", "value": "diminution fugace de la réactivité au toucher, de la force et du tonus musculaire"}, {"measurement": "comportement global et réactivités", "setting": "rat mâle; at none of the doses used (256, 64, 16 and 4 mg/kg)", "value": "n'a entraîné des modifications nettes du comportement et des réactivités"}]}
{"smiles": "COc1ccc(C[S+]([O-])CC(=O)NCCN2CCOCC2)cc1", "note": "(stereo not drawn) [CRL 40615, N-β-morpholinoéthyl-4-méthoxybenzylsulfinyl-acétamide]", "values": [{"measurement": "motilité spontanée", "setting": "souris [1]; I.P., high dose (512 mg/kg)", "value": "diminue la motilité spontanée"}, {"measurement": "DL-0 (dose maximale non mortelle)", "setting": "souris mâle [2]", "value": "> 1024", "unit": "mg/kg"}, {"measurement": "comportement global et réactivités", "setting": "souris mâle [3]; 128 mg/kg and 32 mg/kg", "value": "sédation pendant 15 à 30 minutes puis une excitation tardive qui se manifeste 24 h après administration"}, {"measurement": "comportement global et réactivités", "setting": "rat mâle; 256 mg/kg", "value": "diminution du tonus musculaire"}, {"measurement": "nombre de combats", "setting": "souris [4]", "value": "diminue le nombre de combats"}]}
